According to article PMC3265452 (PLoS Neglected Tropical Diseases, 2012):
Where a name gives a salt, the structure may show the parent alone.

biological target: AaDOP2 (Aedes aegypti, UniProt H6D5H2); experiment: AaDOP2 antagonist screen of the LOPAC1280 library (HEK-CRELuc-Aadop2 cells, luminescence); format: cell-based; conditions: not given
Sequence (H6D5H2 1-476): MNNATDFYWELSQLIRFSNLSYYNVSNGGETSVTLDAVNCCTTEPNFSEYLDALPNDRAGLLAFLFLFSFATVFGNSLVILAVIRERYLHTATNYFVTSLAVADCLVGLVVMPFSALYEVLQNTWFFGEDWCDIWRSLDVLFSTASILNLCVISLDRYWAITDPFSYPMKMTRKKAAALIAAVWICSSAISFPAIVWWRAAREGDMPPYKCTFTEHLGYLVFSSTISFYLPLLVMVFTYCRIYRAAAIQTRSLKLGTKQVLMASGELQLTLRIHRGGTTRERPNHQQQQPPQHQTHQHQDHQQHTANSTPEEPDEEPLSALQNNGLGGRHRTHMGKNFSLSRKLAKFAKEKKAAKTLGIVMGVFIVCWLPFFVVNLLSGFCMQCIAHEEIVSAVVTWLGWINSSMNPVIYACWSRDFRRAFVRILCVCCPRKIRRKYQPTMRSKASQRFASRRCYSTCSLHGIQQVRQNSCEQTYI

SMILES	Compound effect (percent receptor signaling in presence of test compound, relative lux units relative to the SCH23390 control)
Nc1ccc(S(=O)(=O)Nc2ccnn2-c2ccccc2)cc1 [Compound 1078, Sulfaphenazole]	112
CN1CCc2cccc(Cl)c2CC1 [Compound 1082, SKF 86466]	37
Cl.NC1CCN(c2cccc(Cl)n2)CC1 [Compound 1083, SR 57227A]	100
Cl.NNC(N)=O [Compound 1086, Semicarbazide hydrochloride]	107
NCCCCNCCCN [Compound 1089, Spermidine trihydrochloride]	104
C=CCN1C[C@H](C)N([C@H](c2ccc(C(=O)N(CC)CC)cc2)c2cccc(OC)c2)C[C@H]1C [Compound 1090, SNC80]	94
Br.Cc1cccc(C2CN(C)CCc3c2cc(O)c(O)c3Cl)c1 (centres unmarked) [Compound 1091, SKF 83959 hydrobromide]	50
NCCCNCCCCNCCCN [Compound 1092, Spermine tetrahydrochloride]	88
CC(=O)NNC(=O)N1Cc2ccccc2Oc2ccc(Cl)cc21 [Compound 1094, SC 19220]	99
Br.Oc1ccc(C2CNCc3sccc32)cc1O (centres unmarked) [Compound 1095, SKF 89626]	89
CC(=O)S[C@@H]1CC2=CC(=O)CC[C@]2(C)[C@H]2CC[C@@]3(C)[C@@H](CC[C@@]34CCC(=O)O4)[C@H]12 [Compound 1099, Spironolactone]	84
N[C@H](CO)C(=O)O [Compound 1101, D-Serine]	100
C[n+]1cc2c3c(ccc2c2ccc4cc5c(cc4c21)OCO5)OCO3 [Compound 1103, Sanguinarine chloride]	75
CCCCCCCCCCCCC/C=C/[C@@H](O)[C@@H](N)CO [Compound 1105, Sphingosine]	106
CC1CCN(CC[C@H]2CCCN2S(=O)(=O)c2cccc(O)c2)CC1.Cl [Compound 1106, SB 269970 hydrochloride]	98
O=C(CCCN1CCC2(CC1)C(=O)NCN2c1ccccc1)c1ccc(F)cc1 [Compound 1107, Spiperone hydrochloride]	29
O=C(O)c1ccccc1Nc1cccc(OCc2ccc3ccccc3n2)c1 [Compound 1108, SR 2640]	91
CCN1CCC[C@H]1CNC(=O)c1cc(S(N)(=O)=O)ccc1OC [Compound 1109, (-)-Sulpiride]	87
COc1ccc(CCCOC(Cn2ccnc2)c2ccc(OC)cc2)cc1 (centres unmarked) [Compound 1110, SKF 96365]	68
CC#CCOC(=O)c1c(C)nc2sc3c(c2c1N)CCC(O)C3 (centres unmarked) [Compound 1112, SB 205384]	81

SMILES	Compound effect (percent receptor signaling in presence of test compound, relative lux units relative to the SCH23390 control)
CCCCCCCCCCCCCCCCCCNC(=O)OCC(COP(=O)([O-])OCC[n+]1ccsc1)OC (centres unmarked) [Compound 1114, CV-3988]	101
CC1=C(CC(=O)O)c2cc(F)ccc2/C1=C\c1ccc([S+](C)[O-])cc1 (centres unmarked) [Compound 1115, Sulindac]	107
C[N+](C)(C)CCOC(=O)CCC(=O)OCC[N+](C)(C)C [Compound 1116, Succinylcholine chloride]	94
CC(C)(C)NCC(O)c1ccc(O)c(CO)c1 (centres unmarked) [Compound 1117, Salbutamol]	107
OCc1cc(C(O)CNCCCCCCOCCCCc2ccccc2)ccc1O (centres unmarked) [Compound 1118, Salmeterol]	104
C[N+]1(C)[C@@H]2C[C@@H](OC(=O)[C@H](CO)c3ccccc3)C[C@H]1[C@@H]1O[C@@H]12 [Compound 1120, (-)-Scopolamine methyl bromide]	114
CN(C)c1ccc(/C=C2\C(=O)Nc3ccccc32)cc1 [Compound 1121, SU 4312]	51
CCc1ccccc1OC[C@@H](O)CN[C@H]1CCCc2ccccc21.O=C(O)C(=O)O [Compound 1122, SR 59230A oxalate]	75
Cl.O=C(Cc1ccc(Cl)c(Cl)c1)N1CCCCC1CN1CCCC1 (centres unmarked) [Compound 1123, BRL 52537 hydrochloride]	97
Cc1ccc(O)c(N=Nc2ccccc2)n1 [Compound 1125, SIB 1757]	46
Cc1cccc(/C=C/c2ccccc2)n1 [Compound 1126, SIB 1893]	83
Cl.c1ccc2c(N3CCNCC3)cccc2c1 [Compound 1127, 1-(1-Naphthyl)piperazine hydrochloride]	79
O=C(c1ccc(F)cc1)C1CCN(CCn2c(=O)[nH]c3ccccc3c2=O)CC1 [Compound 1128, Ketanserin tartrate]	53
COc1ccccc1N1CCNCC1.Cl [Compound 1129, 1-(2-Methoxyphenyl)piperazine hydrochloride]	64
Nc1ccc(CCN2CCN(c3cccc(C(F)(F)F)c3)CC2)cc1 [Compound 1130, PAPP]	66
O=C1NCN(c2ccccc2)C12CCN(CC1COc3ccccc3O1)CC2 (centres unmarked) [Compound 1131, Spiroxatrine]	90
Br.COc1ccc(-c2ccc(=N)n(CCCC(=O)O)n2)cc1 [Compound 1132, SR-95531]	101
Cc1ccc(C(=O)Nc2ccc(S(=O)(=O)O)c3cc(S(=O)(=O)O)cc(S(=O)(=O)O)c23)cc1NC(=O)c1cccc(NC(=O)Nc2cccc(C(=O)Nc3cc(C(=O)Nc4ccc(S(=O)(=O)O)c5cc(S(=O)(=O)O)cc(S(=O)(=O)O)c45)ccc3C)c2)c1 [Compound 1135, Suramin hexasodium]	112
Nc1ncnc2c1ncn2C1CCCO1 (centres unmarked) [Compound 1136, SQ 22536]	120
C[C@H](O)C(=O)C1=Nc2c(nc(N)[nH]c2=O)NC1 [Compound 1137, Sepiapterin]	110

same assay, conditions: 10 µM compound, 300 nM dopamine, 2 hr; hit = compound effect <20

SMILES	Compound effect (percent receptor signaling in presence of test compound, relative lux units relative to the SCH23390 control) [%]
CC1=C(CC(=O)O)c2cc(F)ccc2/C1=C\c1ccc(S(C)(=O)=O)cc1 [Compound 1080, Sulindac sulfone]	122
Br.CN1CCc2cc(O)c(O)cc2C(c2ccccc2)C1 (centres unmarked) [Compound 1093, SKF 75670 hydrobromide]	39
CCCCN1CCC(COC(=O)c2cc(Cl)c(N)c3c2OCCO3)CC1.Cl [Compound 1097, SB 204070 hydrochloride]	122
CCCCCCCC/C=C\CCCCCCCC(=O)NCCc1ccc(O)c(O)c1 [Compound 1098, N-Oleoyldopamine]	122
Br.CN=c1nc(-c2ccccc2)n(-c2ccccc2)s1 [Compound 1100, SCH-202676 hydrobromide]	102
CC(C)(C)NCC(O)c1ccc(O)c(CO)c1.CC(C)(C)NCC(O)c1ccc(O)c(CO)c1.O=S(=O)(O)O (centres unmarked) [Compound 1102, Albuterol hemisulfate]	106
O=C(O)CCC(=O)N1CCC[C@H]1C(=O)O [Compound 1104, N-Succinyl-L-proline]	111
Cl.O=C(O)C1CCCN(CCC=C(c2ccccc2)c2ccccc2)C1 (centres unmarked) [Compound 1124, SKF 89976A hydrochloride]	95
CN(C)CCCCSC(=N)N.Cl.Cl [Compound 1134, SKF 91488 dihydrochloride]	89
COc1cc2c(cc1OC)[C@@H](c1ccccc1)CN(C)CC2.O=C(O)/C=C\C(=O)O [Compound 1138, R(-)-SCH-12679 maleate]	36
